“And” between values parts separate entries of the source, which are not always exact repeats. Identical values can stand only once. Inconclusive results and toxic doses are left out. How the source made its calls: active means survival T/C of 150% or more; inactive means T/C below 125% in these data. Where a SMILES comes first, the peptide text is derived from it. The star is where a group is joined. For = O=C*
System: B6C3F1 mice, B16 melanoma ip, median survival T/C
Assay: NCI In Vivo Anticancer Drug Screen. Data for tumor model B16 Melanoma (intraperitoneal) in B6C3F1 mice
Settings: endpoint: median survival time, schedule: Q01DX009 (ip), higher = longer survival
Summary of the method: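 Tumor-bearing mice received test compound; a separate group got vehicle only. Survival was then compared, with results reported as treated over control.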

[1] = dose: 12.5 mg/kg/injection, vehicle: saline with Tween-80
[2] = dose: 25.0 mg/kg/injection, vehicle: saline with Tween-80
[3] = dose: 50.0 mg/kg/injection, vehicle: saline with Tween-80
[4] = dose: 100.0 mg/kg/injection, vehicle: saline with Tween-80
[5] = dose: 200.0 mg/kg/injection, vehicle: saline with Tween-80
[6] = dose: 0.75 mg/kg/injection, vehicle: water
[7] = dose: 1.5 mg/kg/injection, vehicle: water
[8] = dose: 3.0 mg/kg/injection, vehicle: water
[9] = dose: 6.0 mg/kg/injection, vehicle: water
[10] = dose: 12.0 mg/kg/injection, vehicle: water
[11] = dose: 12.5 mg/kg/injection, vehicle: saline
[12] = dose: 25.0 mg/kg/injection, vehicle: saline
[13] = dose: 50.0 mg/kg/injection, vehicle: saline
[14] = dose: 200.0 mg/kg/injection, vehicle: saline
[15] = dose: 400.0 mg/kg/injection, vehicle: saline
[16] = dose: 6.25 mg/kg/injection, vehicle: saline
[17] = dose: 100.0 mg/kg/injection, vehicle: saline
[18] = dose: 12.5 mg/kg/injection, vehicle: suspension in saline
[19] = dose: 25.0 mg/kg/injection, vehicle: suspension in saline
[20] = dose: 50.0 mg/kg/injection, vehicle: suspension in saline
[21] = dose: 100.0 mg/kg/injection, vehicle: suspension in saline
[22] = dose: 25.0 mg/kg/injection, vehicle: Klucel (hydroxypropylcellulose) (HPC)
[23] = dose: 50.0 mg/kg/injection, vehicle: Klucel (hydroxypropylcellulose) (HPC)
[24] = dose: 100.0 mg/kg/injection, vehicle: Klucel (hydroxypropylcellulose) (HPC)
[25] = dose: 200.0 mg/kg/injection, vehicle: Klucel (hydroxypropylcellulose) (HPC)
[26] = dose: 400.0 mg/kg/injection, vehicle: Klucel (hydroxypropylcellulose) (HPC)

Measured: T/C

O=CN(SSN(C=O)C1CCCCC1)C1CCCCC1
inactive: [1] 90 % of control | [2] 106 % of control | [3] 101 % of control | [4] 89 % of control | [5] 97 % of control

CC[n+]1c(-c2ccccc2)c2cc(N)ccc2c2ccc(N)cc21
inactive: [6] 97 % of control | [7] 104 % of control | [8] 117 % of control and 97 % of control | [9] 118 % of control
active: [10] 154 % of control

C(COCCOCC1CO1)OCCOCC1CO1 (stereo unspecified)
inactive: [11] 108 % of control | [12] 104 % of control | [13] 107 % of control
active: [14] 153 % of control | [15] 178 % of control

CC(=O)OCC1(C)NC(=O)c2ccccc2O1 (stereo unspecified)
inactive: [1] 88 % of control and 103 % of control | [2] 114 % of control and 103 % of control | [3] 95 % of control and 100 % of control | [4] 92 % of control and 93 % of control | [5] 90 % of control | dose: 400.0 mg/kg/injection, vehicle: saline with Tween-80 86 % of control

NNC(=O)c1ccncc1
inactive: [16] 112 % of control | [11] 99 % of control | [12] 99 % of control | [13] 105 % of control | dose: 64.0 mg/kg/injection, vehicle: saline 100 % of control | [17] 112 % of control | dose: 128.0 mg/kg/injection, vehicle: saline 99 % of control

COC(=O)[C@@]12OC[C@]34[C@H]([C@@H](O)[C@@H]1O)[C@@]1(C)CC(=O)C(O)=C(C)[C@@H]1C[C@H]3OC(=O)[C@H](OC(=O)/C=C(\C)C1(C)CO1)[C@@H]24 (stereo partly specified)
inactive: dose: 0.01 mg/kg/injection, vehicle: saline + alcohol 108 % of control | dose: 0.03 mg/kg/injection, vehicle: saline + alcohol 116 % of control

Cn1cnc([N+](=O)[O-])c1Sc1ncn[nH]1
inactive: [11] 108 % of control | [18] 109 % of control | [12] 102 % of control | [19] 115 % of control | [13] 108 % of control | [20] 100 % of control | [17] 108 % of control | [21] 101 % of control | [14] 108 % of control | dose: 200.0 mg/kg/injection, vehicle: suspension in saline 102 % of control

CC(C)(C)OC(=O)NCCCCC(NC(=O)OCc1ccccc1)C(=O)O (stereo unspecified)
inactive: [22] 109 % of control | [23] 94 % of control | [24] 98 % of control

CC1=CC(=NN=c2cc(C)n([O-])c(C)c2)C=C(C)[N+]1=O
inactive: [18] 91 % of control | [2] 107 % of control | [19] 99 % of control | [3] 123 % of control | [20] 95 % of control | [4] 121 % of control | [21] 108 % of control

CC1=C(O)C(=O)[C@@H]2O[C@@H]2C1=O
inactive: dose: 0.78 mg/kg/injection, vehicle: saline 87 % of control and 92 % of control | dose: 1.56 mg/kg/injection, vehicle: saline 91 % of control and 98 % of control | dose: 3.12 mg/kg/injection, vehicle: saline 103 % of control | dose: 3.13 mg/kg/injection, vehicle: saline 107 % of control | [16] 112 % of control and 94 % of control | [11] 108 % of control and 106 % of control

CC(NC(=O)OCC1c2ccccc2-c2ccccc21)C(=O)O (stereo unspecified)
inactive: [24] 104 % of control | [25] 101 % of control | [26] 87 % of control

O=c1nc(Oc2ccccc2)nc2ncccn12
inactive: dose: 3.12 mg/kg/injection, vehicle: saline with Tween-80 108 % of control and 101 % of control and 102 % of control

CCCCNC(C)C1(O)Cc2c(O)c3c(c(O)c2C(OC2CC(N)C(O)C(C)O2)C1)C(=O)c1c(OC)cccc1C3=O (stereo unspecified)
active: dose: 10.0 mg/kg/injection, vehicle: saline 174 % of control and 193 % of control | dose: 20.0 mg/kg/injection, vehicle: saline 160 % of control and 222 % of control | dose: 40.0 mg/kg/injection, vehicle: saline 190 % of control and 333 % of control | dose: 80.0 mg/kg/injection, vehicle: saline 232 % of control and 333 % of control
inactive: dose: 5.0 mg/kg/injection, vehicle: saline 120 % of control

CCCCCC1c2cc(O)ccc2OC1N1CCOCC1 (stereo unspecified)
inactive: dose: 6.0 mg/kg/injection, vehicle: saline with Tween-80 90 % of control | dose: 12.0 mg/kg/injection, vehicle: saline with Tween-80 103 % of control | [1] 106 % of control | [2] 96 % of control and 107 % of control | [3] 98 % of control and 102 % of control | [4] 94 % of control and 106 % of control | [5] 96 % of control and 97 % of control

CSCCC(NC=O)C(=O)NC(C(=O)O)C(C)C (stereo not drawn) (For-Met-Val-OH; configuration not given here)
inactive: [22] 101 % of control | [23] 101 % of control | [24] 107 % of control | [25] 105 % of control | [26] 98 % of control

COc1cccc2c1C(=O)c1c(O)c3c(c(O)c1C2=O)CC(O)(/C(C)=N/NC(=O)CCC(=O)N/N=C(\C)C1(O)Cc2c(O)c4c(c(O)c2C(OC2CC(N)C(O)C(C)O2)C1)C(=O)c1c(OC)cccc1C4=O)CC3OC1CC(N)C(O)C(C)O1 (stereo unspecified)
active: [6] 171 % of control | [7] 171 % of control and 195 % of control | [8] 202 % of control and 242 % of control | [9] 250 % of control and 256 % of control | [10] 320 % of control

COC1C(O)CC(OC2CC(Oc3cc4cc5c(c(O)c4c(O)c3C)C(=O)[C@@H](OC3CC(OC4CC(OC6CC(C)(O)C(OC(C)=O)C(C)O6)C(O)C(C)O4)C(O)C(C)O3)[C@H]([C@H](OC)C(=O)[C@@H](O)[C@@H](C)O)C5)OC(C)C2OC(C)=O)OC1C (stereo partly specified)
active: dose: 0.01 mg/kg/injection, vehicle: Klucel (hydroxypropylcellulose) (HPC) 165 % of control | dose: 0.04 mg/kg/injection, vehicle: Klucel (hydroxypropylcellulose) (HPC) 151 % of control | dose: 0.08 mg/kg/injection, vehicle: Klucel (hydroxypropylcellulose) (HPC) 196 % of control | dose: 0.16 mg/kg/injection, vehicle: Klucel (hydroxypropylcellulose) (HPC) 171 % of control

O=C(O)CP(=O)(O)O
active: [14] 164 % of control | [15] 189 % of control and 227 % of control | dose: 800.0 mg/kg/injection, vehicle: saline 206 % of control and 255 % of control
inactive: [11] 100 % of control | [12] 102 % of control and 107 % of control | [13] 102 % of control and 106 % of control | [17] 118 % of control and 121 % of control

O=C1c2ccccc2C(=O)c2c(NCCNCCO)ccc(O)c21
active: dose: 20.0 mg/kg/injection, vehicle: suspension in saline 153 % of control | dose: 40.0 mg/kg/injection, vehicle: suspension in saline 184 % of control | dose: 80.0 mg/kg/injection, vehicle: suspension in saline 190 % of control
inactive: dose: 2.5 mg/kg/injection, vehicle: suspension in saline 118 % of control

CC(=S)NC(O)C(=O)c1ccccc1 (stereo unspecified)
inactive: dose: 12.5 mg/kg/injection, vehicle: distilled water + Tween-80 104 % of control | [1] 95 % of control | dose: 25.0 mg/kg/injection, vehicle: distilled water + Tween-80 107 % of control | [2] 94 % of control | dose: 50.0 mg/kg/injection, vehicle: distilled water + Tween-80 98 % of control | [3] 93 % of control | dose: 100.0 mg/kg/injection, vehicle: distilled water + Tween-80 113 % of control | [4] 93 % of control | [5] 89 % of control

Reference: PubChem BioAssay AID200 (DTP/NCI, 2004)
